From PubChem BioAssay (NCI) come the findings set out here.

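Tested at 5 concentrations; 48 h exposure; 96-well plates; endpoints linearly interpolated, else capped at highest concentration. TGI: total growth inhibition.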

Holding throughout (assay): growth of human tumour cells (NCI), 48 h
In assay [1] the test system is K-562 leukemia.
Assay [2] has as its system COLO 205 colon.
For assay [3], the system named is CAKI-1 renal.
Assay [4] relates to SK-OV-3 ovarian.
The subject of assay [5] is NCI-H460 lung.
The subject of assay [6] is EKVX NSCLC.
For assay [7], the system named is SK-MEL-28 melanoma.
Assay [8] relates to UACC-62 melanoma.
In assay [9] the test system is HL-60(TB) leukemia.
Assay [10] deals with SK-MEL-5 melanoma.
Assay [11] concerns A549 NSCLC.
The subject of assay [12] is KM12 colon.
The subject of assay [13] is CCRF-CEM leukemia.
Assay [14] relates to SW-620 colon.
Assay [15] concerns SN12C renal.
The test system of assay [16] is IGROV1 ovarian.
For assay [17], the system named is OVCAR-4 ovarian.
The test system of assay [18] is NCI-H23 lung.
For assay [19], the system named is HCC-2998 colon.
Assay [20] concerns SF-268 CNS.

Regarding `NNc1nnc(-c2ccccc2)nc1Cc1ccccc1`, the TGI in [1], in assay [2], in assay [3], in [4], in assay [5] and in assay [6] was > 100 µM each time. Besides, the TGI was > 100 µM in assay [7]; 16.1 µM in [8]; 38 µM in assay [9]; > 100 µM in [10]; > 100 µM in assay [11]; > 100 µM in assay [12]. Further, the TGI in assay [13] is > 100 µM; in [14], > 100 µM; in [15], 51.6 µM; in assay [16], > 100 µM; in assay [17], > 100 µM; in assay [18] it was > 100 µM. Further, the TGI in assay [19] and in assay [20] was > 100 µM in each case.
With `C/C(=N\NC(=O)c1ccncc1)c1cccc(C(F)(F)F)c1`, the TGI in assay [1], in assay [2], in [3], in assay [4], in assay [5] and in assay [6] was > 10 µM each time. For the same compound, the TGI in [7], in [8], in assay [9], in assay [10], in assay [11] and in [12] was > 10 µM each time. In addition, the TGI in assay [13], in [14], in [15], in assay [16], in assay [17] and in assay [18] was > 10 µM each time. In addition, the TGI in assay [19] and in assay [20] was > 10 µM each time.
With `CCOC(=O)NC(OCc1ccccc1)(C(=O)OC)C(F)(F)F` (stereo not given), the TGI in assay [1] is > 100 µM; in assay [2], > 100 µM; in assay [3], 87.1 µM; in [4] it was > 100 µM; in assay [5], > 100 µM; in [6], > 100 µM. The TGI in [7], in [8], in assay [9], in assay [10], in assay [11] and in [12] was > 100 µM in each case. Moreover, the TGI in [13], in [14], in assay [15], in [16], in [17] and in [18] was > 100 µM each time. Besides, the TGI in [19] and in assay [20] was > 100 µM in each case.
